“Also recorded” adds a separate entry of the source.
Key:
[1] = endogenous level; cited from earlier work
[2] = acidic conditions / stomach; cited from earlier work
physchem = details: weakly alkaline water
Procedure: A 1 ml sample was analyzed by HPLC using a Shimadzu LC-10AD Liquid Chromatograph. The operating parameters are as follows:
The operating parameters are as follows:

[3] = system: adenosine triphosphate resynthesis; details: in muscle, creatine phosphate versus glycogen; cited from earlier work

SMILES | creatine remaining, by HPLC (slightly alkaline water) | creatinine produced, by HPLC (weakly alkaline water) | normal creatine concentration in the bloodstream [1] | conversion to creatinine under acidic conditions [2] | degraded (physchem) | rate of ATP resynthesis compared to glycogen [3]
CN(CC(=O)O)C(=N)N [creatine, N-(aminoiminomethyl)-N-methylglycine] | about 85% | about 15% | about 50 μmol per liter of blood | formation of creatinine from free creatine is complete; also recorded: rapidly converts to creatinine by the acidic conditions in the stomach | ~15% | 
CN(CC(=O)O)C(=N)NP(=O)(O)O [Creatine phosphate] |  |  |  |  |  | nearly twice the rate

Source: patent US5973005A, “Aqueous creatine solution and process of producing a stable, bioavailable aqueous creatine solution” (priority 1998, dated 1999)
